Holding throughout (test): NCI tumour cell line growth inhibition, 48 h
The subject of experiment [1] is OVCAR-4 ovarian.
Experiment [2] concerns SF-295 CNS.
Experiment [3] deals with MOLT-4 leukemia.
For experiment [4], the system named is KM12 colon.
For experiment [5], the system named is SN12C renal.
Experiment [6] relates to HCT-15 colon.
The subject of experiment [7] is SR leukemia.
Experiment [8] deals with UACC-257 melanoma.
For experiment [9], the system named is OVCAR-8 ovarian.
Experiment [10] deals with A498 renal.

“And” between values parts separate entries of the source, which are not always exact repeats. Equal values may be shown once.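 Cultured in 96-well plates, cells were exposed to test compound for 48 hours across five concentrations. Abbreviation: GI50, concentration required for 50% inhibition of growth. TGI: concentration producing complete growth inhibition.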 Where only a bound is given, the exact number is not on record here.

Take `Nc1ccc(Sc2ccc3c4c2cccc4c(=O)n2c4ccccc4nc32)cc1`: the GI50 in experiment [1] was 6.93 µM; in experiment [2], 2.38 µM; in experiment [3], 2.57 µM; in [4], 6.63 µM; in experiment [5], 2.61 µM; in experiment [6], 3.34 µM. In addition, the GI50 in [7] was 1.6 µM; in [8], 11.8 µM; in experiment [9], 5.13 µM; in experiment [10] it was 3.67 µM. The TGI came to 28.8 µM in experiment [1]; 8.01 µM in [2]; 7.68 µM in experiment [3]; 58.6 µM in [4]; 19.7 µM in [5]; 40 µM in [6]. The TGI in experiment [7] amounted to 33.1 µM; in experiment [8], 43.5 µM; in experiment [9], 30.9 µM; in [10], 57.9 µM.

For `CCN1CCN(c2nc(NNC(=O)c3cccc(OC)c3)nc(N3CCN(C(c4ccccc4)c4ccccc4)CC3)n2)CC1`, the GI50 in experiment [1] is 2.06 µM; in experiment [2], 1.87 µM; in experiment [3], 2.03 µM; in experiment [4] it was 2.28 µM; in experiment [5], 1.62 µM; in experiment [7], 0.926 µM. In addition, the GI50 is 2.18 µM in experiment [8] and 3.73 µM in experiment [10]. Also, the TGI in [1] came to 5.97 µM; in experiment [2], 3.6 µM; in experiment [3], 4.72 µM; in experiment [4], 5.48 µM; in experiment [5], 3.36 µM; in experiment [7], 3.81 µM. Besides, the results for the TGI in experiment [8] and in [10] were 4.99 µM and 15.3 µM, respectively.

`COC(=O)[C@@H](C)C[C@H](Cc1ccccc1)NC(=O)c1csc([C@@H](C[C@H](C(C)C)N(C)C(=O)[C@@H](NC(=O)CN(C)C)C2CC2)OC(C)=O)n1`: the GI50 in experiment [1] was 1.16 µM; in experiment [2], 0.0168 µM; in [3], 0.0501 µM; in experiment [4], 0.0215 µM; in [5], 0.0647 µM; in [6], 0.135 µM. Further, the results for the GI50 in experiment [7], in experiment [9] and in experiment [10] were 0.00165 µM, 0.0495 µM and 0.304 µM, respectively. In addition, the TGI in [1] is above 16.5 µM; in experiment [2], 0.329 µM; in experiment [3], above 16.5 µM; in experiment [4], above 10.5 µM; in experiment [5], above 16.5 µM; in [6], above 16.5 µM. Besides, the TGI in [7] is above 16.5 µM; in experiment [9], above 16.5 µM; in experiment [10] it was above 7.5 µM.

As for `c1ccc2c(Nc3ccc4c(c3)OCO4)c3ccoc3nc2c1`, the GI50 in [1] was 29.4 µM; in experiment [2] it was 14.7 µM; in [3], 5.69 µM; in experiment [4], 14.2 µM; in experiment [5], 24.2 µM; in experiment [6], 14.7 µM. Besides, the figures for the GI50 in experiment [7], in experiment [9] and in experiment [10] were 3.98 µM, 12.6 µM and 14.4 µM, respectively. The TGI was above 100 µM in experiment [1]; 34.3 µM in [2]; above 100 µM in [3]; 35.2 µM in experiment [4]; 82.1 µM in experiment [5]; 45.6 µM in experiment [6]. Moreover, the TGI stood at 29.3 µM in experiment [7], 46.4 µM in [9] and 29.1 µM in experiment [10].

Turning to `O=C(/C=C/c1ccc(OCCCOc2ccc(/C=C/C(=O)c3ccc(Cl)cc3)cc2)cc1)c1ccc(Cl)cc1`, the TGI in experiment [1], in [2], in experiment [3], in experiment [4], in experiment [5] and in experiment [6] was above 100 µM in each case. In addition, the TGI in experiment [7], in experiment [8] and in experiment [9] was above 100 µM throughout.

Take `Cc1ccc(S(=O)(=O)N/N=C/CN2C(=O)c3ccccc3C2=O)cc1`: the TGI in [1], in experiment [2], in experiment [3], in [5], in [6] and in experiment [7] was above 100 µM in each case. The TGI in experiment [8], in experiment [9] and in experiment [10] was above 100 µM each time.

In the case of `CC(C)S(=O)(=O)ON1C(=O)c2ccc([N+](=O)[O-])cc2C1=O`, the TGI in [1], in experiment [2], in experiment [4], in experiment [5], in [6] and in experiment [7] was above 100 µM in each case. Also, the TGI in experiment [8], in [9] and in experiment [10] was above 100 µM throughout.

`COc1ccc(CN[C@H]2CCc3cc(OC)c(OC)c(OC)c3-c3ccc(SC)c(=O)cc32)c(OC)c1OC`: the TGI in experiment [1] was above 100 µM; in [2], above 100 µM; in experiment [3] it was above 100 µM; in experiment [4], 0.228 µM and 0.0408 µM; in experiment [5], 59.8 µM; in experiment [6] it was 0.0938 µM. Further, the TGI is above 100 µM in [8] and 0.0804 µM in experiment [10]. For the same compound, the GI50 in experiment [2] was 0.0167 µM; in experiment [4], below 0.01 µM; in experiment [7] it was below 0.01 µM; in experiment [8], 0.037 µM.

On to `CO[C@H]1/C=C/C=C/C=C/C[C@H](OC(=O)[C@@H](C)NC(=O)C2CCCCC2)[C@H](C)[C@@H](O)/C(C)=C\CCC2=CC(=O)C=C(NC(=O)C1)C2=O`, for which the GI50 in [1] is 0.225 µM; in experiment [2], 0.124 µM; in [3], 0.142 µM; in experiment [4] it was 0.131 µM; in [5], 0.106 µM; in experiment [6] it was 0.336 µM. In addition, the GI50 in [7] is 0.0561 µM; in experiment [9], 0.194 µM; in experiment [10], 0.282 µM. The TGI in experiment [1] was 2.84 µM; in [2], 0.966 µM; in [3], 7.04 µM; in experiment [4] it was 10.1 µM; in [5], 0.556 µM; in [6], 5.57 µM. The TGI is above 50 µM in experiment [7], 1.57 µM in [9] and 2.33 µM in experiment [10].

For `COc1cc2cc(C(=O)N3C[C@H](CCl)c4c3cc(O)c3ccccc43)[nH]c2c(OC)c1OC`, the GI50 in [1] was 0.0612 µM; in experiment [3], below 0.01 µM; in [4] it was 0.0425 µM; in experiment [6] it was 0.022 µM; in experiment [8], 0.135 µM and 0.0459 µM; in experiment [9], 1.67 µM. In addition, the TGI in [1] was 2.76 µM and 14.6 µM; in experiment [2], 1.23 µM; in experiment [3], 6.22 µM; in experiment [4] it was 0.677 µM and 1.37 µM; in experiment [7] it was 0.0672 µM; in experiment [9], 1.13 µM and 3.53 µM. For the same compound, in [10], the TGI stood at 0.684 µM.

These data come from PubChem BioAssay (NCI).
